In patent publication US20250186456A1, “PYRIMIDINE-FUSED CYCLIC COMPOUND AND PREPARATION METHOD AND USE THEREOF” (Genfleet Therapeutics (Shanghai) Inc., priority 2021, published 2025):
Where two headings read alike, the source gives them in different places.

Tests used:
Type in all cases: cell-based, human
[1] = tested on: p-ERK in AGS cells (KRAS G12D mutation); test: Cell p-ERK assay (HTRF, Advance ERK phospho-T202/Y204 kit); conditions: AGS cells, 3 hours incubation with compound, HTRF, read-out: AGS p-ERK IC50
Summary of the method: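 Phospho-ERK (T202/Y204) measured by HTRF in lysates of human gastric AGS cells carrying KRAS G12D, after 3 h compound exposure at 0.1% DMSO over a 3.16-fold series. Percent inhibition relative to DMSO control and lysis-only blank; four-parameter curve fitting gave IC50.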

[2] = tested on: AGS cells (KRAS G12D); test: Cell proliferation inhibition assay, 3D, CellTiter-Glo 3D, AGS; conditions: AGS 3D sphere model, 5 days incubation
Summary of the method: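 Spheroids (800 AsPC-1 or 400 AGS cells/well; RPMI-1640 or F-12K with 10% FBS) formed overnight, then were dosed on day 2 with a 3.16-fold series at 0.1% DMSO. After 5 days, viability was read by CellTiter-Glo 3D luminescence, and IC50 came from four-parameter fits of inhibition versus DMSO control and medium blank.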

[3] = tested on: AsPC-1 cells (KRAS G12D mutation); test: Cell proliferation inhibition assay, 3D, CellTiter-Glo 3D, AsPC-1; conditions: AsPC-1 3D sphere model, 5 days incubation
Description: AsPC-1 was purchased from ATCC; catalog No: CRL-1682; AGS was purchased from ATCC; catalog No: CRL-1739; RPMI1640 was purchased from Gibco; catalog No: 11875-093 2235123; F12K was purchased from Gibco; catalog No: 21127-022; FBS was purchased from Gibco; catalog No: 10099-141C; trypsin (containing EDTA) was purchased from Gibco; catalog No: 25200-072; CellTiter Glo-3D was purchased from Progema; catalog No: G9683; 384-well sphere plates were purchased from Corning; catalog No: 3830; white opaque 384-well plates were purchased from Corning; catalog No: 3570; cell counters were purchased from CHEMOMETEC; model: NC-200; microplate reader was purchased from PerkinElmer; model: Envison;
AsPC-1 is an endogenous human pancreatic cancer cell containing KRAS^G12D mutation, cultured in RPMI-1640 medium containing 10% FBS; AGS is a human gastric cancer cell line containing KRAS^G12D, cultured in F-12K medium containing 10% FBS. Cells in the logarithmic growth phase were taken, digested with trypsin (containing EDTA), collected, and counted. 800 AsPC-1 cells/well or 400 AGS cells/well, respectively, were seeded in a 384-well sphere plate and cultured overnight at 5% CO2 to establish a 3D cell model. 1000X stock solutions of compounds at a 3.16-fold concentration gradient of were prepared using DMSO, diluted 100-fold into a 10X compound stock solution using the medium described above. The 10X compound stock solution was added to each cell on 2nd day after cell seeding at a final concentration of 1X and a DMSO content of 0.1%. DMSO was used as a control in the experiment, and the medium was used as blank. After the addition of the compounds, the cells were incubated for 5 days. 30 μl of CellTiter-Glo work solution was added to each well, mixed well, and incubated for 30 minutes. After standing at room temperature for 30 minutes, 40 μl of the mixed solution was transferred to an opaque 384-well plate with a white clear bottom. Luminescence chemiluminescence value was read by a microplate reader, and the cell proliferation inhibition rate (IR (%)=(RLU control-RLU compound)/(RLU control-RLU blank)×100%) was calculated. The gradiently diluted concentration of the compounds and corresponding cell proliferation inhibition rate were fitted using XLFit four-parameters method, and the IC50 value was calculated. […] The results of some exemplary compounds are shown in Table 2 (“−” represents untested).

| Compound | IC50 ([1]; Homo sapiens) [nM] | IC50 ([2]; Homo sapiens, 120 h) [nM] | IC50 ([3]; Homo sapiens, ASPC1, 120 h) [nM] | IC50 [1] [nM] | IC50 [2] [nM] | IC50 [3] [nM] |
| --- | --- | --- | --- | --- | --- | --- |
| C#Cc1cccc2cccc(-c3nc4c5c(nc(OCC67CCCN6CC(=C)C7)nc5c3F)N3C[C@H]5CC[C@H](N5)[C@H]3[C@H](CC)O4)c12 (stereo partly drawn) [Example Z595, (5S,5aS,6S,9R)-5-ethyl-2-(8-ethynylnaphthalen-1-yl)-1-fluoro-12-((2-methylenetetrahydro-1H-pyrrolizin-7a (5H)-yl)methoxy)-5a,6,7,8,9,10-hexahydro-5H-4-oxa-3,10a,11,13,14-pentaaza-6,9-methanonaphtho[1,8-ab]heptalene] | 119 | 99 | 157 | – | – | – |
| C#Cc1c(F)ccc2cccc(-c3nc4c5c(nc(OCC67CCC8(CC8)N6CC(=C)C7)nc5c3F)N3C[C@H]5CC[C@H](N5)[C@H]3[C@H](C)O4)c12 (stereo partly drawn) [Example Z597] | – | – | – | 48.5 | 47.9 | 98.7 |
| C#Cc1c(F)ccc2cc(O)cc(-c3nc4c5c(nc(OCC67CC(=C)CN6CC(=C)C7)nc5c3F)N3C[C@H]5CC[C@H](N5)[C@H]3CCO4)c12 [Example Z598] | 0.68 | 1.23 | 5.55 | – | – | – |
| C#Cc1c(F)ccc2cccc(-c3nc4c5c(nc(OCC67CC(=C)CN6CC6(CC6)C7)nc5c3F)N3C[C@H]5CC[C@H](N5)[C@H]3[C@H](C)O4)c12 (stereo partly drawn) [Example Z599] | – | – | – | 27.6 | 10.8 | 22.3 |
| C#Cc1c(F)ccc2cccc(-c3nc4c5c(nc(OCC67CCCN6CCC7=C)nc5c3F)N3C[C@H]5CC[C@H](N5)[C@H]3[C@H](C)O4)c12 (stereo partly drawn) [Example Z600, (5S,5aS,6S,9R)-2-(8-ethynyl-7-fluoronaphthalen-1-yl)-1-fluoro-5-methyl-12-((1-methylenetetrahydro-1H-pyrrolizin-7a (5H)-yl)methoxy)-5a,6,7,8,9,10-hexahydro-5H-4-oxa-3,10a, 11, 13, 14-pentaaza-6,9-methanonaphtho[1,8-ab]heptalene] | 18.3 | 15.3 | 64.8 | – | – | – |
| C#Cc1c(F)ccc2cccc(-c3nc4c5c(nc(OCC67CCCN6CC(=CF)C7)nc5c3F)N3C[C@H]5CC[C@H](N5)[C@H]3[C@H](C)O4)c12 (stereo partly drawn) [Example Z601, (5S,5aS,6S,9R)-2-(8-ethynyl-7-fluoronaphthalen-1-yl)-1-fluoro-12-((2-(fluoromethylene)tetrahydro-1H-pyrrolizin-7a (5H)-yl)methoxy)-5-methyl-5a,6,7,8,9,10-hexahydro-5H-4-oxa-3,10a, 11, 13, 14-pentaaza-6,9-methanonaphtho[1,8-ab]heptalene] | 10.5 | 13.5 | 39 | – | – | – |
| C#Cc1c(F)ccc2cccc(-c3nc4c5c(nc(OCC67CC(=C)CN6CCC76CC6)nc5c3F)N3C[C@H]5CC[C@H](N5)[C@H]3[C@H](C)O4)c12 (stereo partly drawn) [Example Z602, (58,5aS,6S,9R)-2-(8-ethynyl-7-fluoronaphthalen-1-yl)-1-fluoro-5-methyl-12-((6′-methylenetetrahydrospiro[cyclopropane-1, 1′-pyrrolizin]-7a′ (5′H)-yl)methoxy)-5a,6,7,8,9,10-hexahydro-5H-4-oxa-3,10a,11,13,14-pentaaza-6,9-methanonaphtho[1,8-ab]heptalene] | – | – | – | 34.1 | 26.5 | 90.4 |
| C#Cc1c(F)ccc2cccc(-c3nc4c5c(nc(OCC67CC(=C)CN6[C@@H]6C[C@@H]6C7)nc5c3F)N3C[C@H]5CC[C@H](N5)[C@H]3[C@H](C)O4)c12 (stereo partly drawn) [Example Z603, (5S,5aS,6S,9R)-2-(8-Ethynyl-7-Fluoronaphthalen-1-Yl)-1-Fluoro-5-Methyl-12-(((1aR,6aR)-4-Methylenehexahydrocyclopropa[b]Pyrrolizin-5a (3H)-Yl)Methoxy)-5a,6,7,8,9,10-Hexahydro-5H-4-Oxa-3,10a,11,13,14-Pentaaza-6,9-Methanonaphtho[1,8-Ab]Heptalene] | 64.1 | 110 | 217 | – | – | – |
| C#Cc1c(F)ccc2cccc(-c3nc4c5c(nc(OCC67CC(=C)CN6[C@H]6C[C@H]6C7)nc5c3F)N3C[C@H]5CC[C@H](N5)[C@H]3[C@H](C)O4)c12 (stereo partly drawn) [Example Z604, (5S,5aS,6S,9R)-2-(8-ethynyl-7-fluoronaphthalen-1-yl)-1-fluoro-5-methyl-12-(((1aS,6aS)-4-methylenehexahydrocyclopropa[b]pyrrolizin-5a (3H)-yl)methoxy)-5a,6,7,8,9,10-hexahydro-5H-4-oxa-3,10a, 11, 13,14-pentaaza-6,9-methanonaphtho[1,8-ab]heptalene] | 95 | 573 | 468 | – | – | – |
| C#Cc1c(F)ccc2cccc(-c3nc4c5c(nc(OCC67CC(=C)CN6C[C@H]6C[C@H]67)nc5c3F)N3C[C@H]5CC[C@H](N5)[C@H]3[C@H](C)O4)c12 (stereo partly drawn) [Example Z606, (5S,5aS,6S,9R)-2-(8-ethynyl-7-fluoronaphthalen-1-yl)-1-fluoro-5-methyl-12-(((1aS,6bR)-5-methylenehexahydrocyclopropa[a]pyrrolizin-6a (4H)-yl)methoxy)-5a,6,7,8,9,10-hexahydro-5H-4-oxa-3,10a,11,13,14-pentaaza-6,9-methanonaphtho[1,8-ab]heptalene] | 874 | 908 | 802 | – | – | – |
| C#Cc1c(F)ccc2cccc(-c3nc4c5c(nc(OCC67CC(=C)CN6CC(F)C7)nc5c3F)N3C[C@H]5CC[C@H](N5)[C@H]3[C@H](C)O4)c12 (stereo partly drawn) [Example Z607, (5S,5aS,6S,9R)-2-(8-ethynyl-7-fluoronaphthalen-1-yl)-1-fluoro-12-((2-fluoro-6-methylenetetrahydro-1H-pyrrolizin-7a (5H)-yl)methoxy)-5-methyl-5a,6,7,8,9,10-hexahydro-5H-4-oxa-3,10a,11,13,14-pentaaza-6,9-methanonaphtho[1,8-ab]heptalene] | 24.4 | 81.2 | 101 | – | – | – |
| C#Cc1c(F)ccc2cccc(-c3nc4c5c(nc(OCC67CCCN6CC(=C(F)F)C7)nc5c3F)N3C[C@H]5CC[C@H](N5)[C@H]3[C@H](C)O4)c12 (stereo partly drawn) [Example Z608, (5S,5aS,6S,9R)-12-((2-(difluoromethylene)tetrahydro-1H-pyrrolizin-7a (5H)-yl)methoxy)-2-(8-ethynyl-7-fluoronaphthalen-1-yl)-1-fluoro-5-methyl-5a,6,7,8,9,10-hexahydro-5H-4-oxa-3,10a, 11,13,14-pentaaza-6,9-methanonaphtho[1,8-ab]heptalene] | 28.4 | 82.3 | 146 | – | – | – |
| C#Cc1c(F)ccc2cccc(-c3nc4c5c(nc(OCC67CC(=C)CN6CCC7=C)nc5c3F)N3C[C@H]5CC[C@H](N5)[C@H]3[C@H](C)O4)c12 (stereo partly drawn) [Example Z610, (5S,5aS,6S,9R)-12-((1,6-dimethylenetetrahydro-1H-pyrrolizin-7a (5H)-yl)methoxy)-2-(8-ethynyl-7-fluoronaphthalen-1-yl)-1-fluoro-5-methyl-5a,6,7,8,9,10-hexahydro-5H-4-oxa-3,10a, 11,13,14-pentaaza-6,9-methanonaphtho[1,8-ab]heptalene] | 17.2 | 18.6 | 42.3 | – | – | – |
| C#Cc1c(F)ccc2cccc(-c3nc4c5c(nc(OCC67CCCN6CCC7=CF)nc5c3F)N3C[C@H]5CC[C@H](N5)[C@H]3[C@H](C)O4)c12 (stereo partly drawn) [Example Z611, (5S,5aS,68,9R)-2-(8-ethynyl-7-fluoronaphthalen-1-yl)-1-fluoro-12-((1-(fluoromethylene)tetrahydro-1H-pyrrolizin-7a (5H)-yl)methoxy)-5-methyl-5a,6,7,8,9,10-hexahydro-5H-4-oxa-3,10a,11,13,14-pentaaza-6,9-methanonaphtho[1,8-ab]heptalene] | 19.6 | 10.4 | 49.1 | – | – | – |
